What was measured:
[1] = system: pre-ovulatory ovarian follicles; test: Ovarian ultrasonography in heifers treated with a letrozole-containing intravaginal device; format: in vivo, cattle (Hereford-cross beef heifers); conditions: for Device placement to ovulation: inserted Day 1, n=15, mean±SEM
Protocol: Hereford-cross beef heifers (n=30), 15 to 20 months of age and weighing between 235 and 405 kg (average 336 kg), were chosen from a herd of 51 heifers maintained in outdoor pens at the University of Saskatchewan Goodale Research Farm (52° North and 106° West). Heifers were fed alfalfa/grass hay and concentrate to gain approximately 1.3 Kg per day and had water ad libitum during the experimental period from October to December. Heifers were initially examined by transrectal ultrasonography (MyLab5 VET, Canadian Veterinary Imaging, Georgetown, Ontario Canada) to detect the presence of a CL (i.e., confirm post-pubertal status; [18]. Animal procedures were performed in accordance with the Canadian Council on Animal Care and were approved by University of Saskatchewan Protocol Review Committee.
(§1) Heifers in which a CL was detected were given two luteolytic doses of PGF (12 h apart) and monitored by ultrasonography for ovulation. Five to eight days later, the two largest ovarian follicles were ablated by transvaginal ultrasound-guided follicular aspiration to synchronize follicular wave emergence which was expected to occur 1 to 1.5 days later. Prostaglandin (500 μg cloprostenol, Estrumate, Schering-Plough Animal Health, Pointe-Claire, QC, Canada) was given intramuscularly at 60 and 72 h after follicular ablation to induce regression of the CL and shift from a non-ovulatory to an ovulatory follicular wave. At the time of follicular wave emergence (Day 0; i.e., 1.5 days after follicle ablation), heifers were assigned randomly to two groups and given an intravaginal device containing 1 g of letrozole (letrozole group, n=15) or a placebo (letrozole-free) intravaginal device (control group, n=15). Devices were inserted on Day 1 and were kept in place until Day 7 or until ovulation was detected, which ever occurred first.
Intravaginal devices were prepared using a Cue-Mate spine (Bioniche Animal Health, Bellville, ON, Canada) assembled with two blank (progesterone-free) silicone pods that were coated with a gel-based vehicle containing letrozole or vehicle only (control). The vehicle contained the following (all ingredients % w/w): letrozole 10%, gelatin 20% (Gelatin type B, Fisher Scientific, Pittsburgh, PA, USA), polymer 65% (prepared by mixing distilled water 68%, Poloxamer 188 12% and Poloxamer 407 20%, both from Spectrum Chemical, New Brunswick, NJ, USA) and distilled water 5%.
The observations from ultrasound examinations were recorded on a sketch sheet in which each ovary and its structures (CL and follicles ≥ 4 mm in diameter) were represented by size and location. Ovulation was defined as the disappearance of any follicle ≥8 mm between two consecutive daily examinations and was confirmed by the subsequent development of a CL [18]. Follicular wave emergence was defined as occurring 1.5 days after follicular ablation. The dominant follicle of a wave was defined as the largest antral follicle of that wave.
Statistical analyses were done using the Statistical Analysis System software package (SAS Learning Edition 9.1, 2006; SAS Institute Inc., Cary, NC, USA). Time-series data (hormone concentrations, follicle and CL diameter profiles) were analyzed by repeated measures using the PROC MIXED procedure. The main effects were treatment (letrozole and control), time, and their interactions (noted in figures as treatment, day and treat*day, respectively). Single-point measurements (dominant follicle diameter at device placement, maximum diameter of extant dominant follicle, intervals from ablation to wave emergence, and from device placement to ovulation) were analyzed by t-tests. Individual time point comparisons between treatment groups were performed using least significant difference test. Significance was defined as P ≤ 0.05.

[2] = system: plasma FSH; test: Plasma FSH concentration (radioimmunoassay) in treated heifers; format: in vivo, cattle (Hereford-cross beef heifers); conditions: n=15, P=0.1
Protocol: as §1, with “At the time of follicular wave emergence (Day 0; i.e., 1.5 days after follicle ablation), heifers were assigned randomly to two groups and given an intravaginal device containing 1 g of letrozole (letrozole group, n=15) or a placebo (letrozole-free) intravaginal device (control group, n=15).” left out, “first. […]” for “first.”
Plasma FSH concentrations were determined in duplicate using a double-antibody radioimmunoassay using NIDDK-anti-oFSH-1 primary antibody and expressed as USDA bovine FSH-Il units. […] All samples were analyzed in a single assay; the intra-assay coefficients of variation were 7.9 and 6.5%, for low (mean, 2.4 ng/mL) and high reference samples (mean 4.9 ng/mL), respectively. […]

[3] = system: ovarian function; design: method as in PMID 21696721, PMID 22541551; conditions: cited from earlier work
[4] = single intravenous dose Day 3 post-ovulation, or 3-day regimen Days 1–3, 3–5 or 5–7 post-ovulation

N#Cc1ccc(C(c2ccc(C#N)cc2)n2cncn2)cc1 [Letrozole]
Dominant follicle diameter at device placement ([1]; Day 1, at device insertion (baseline), n=15, mean±SEM): 4.2±0.46 mm
Corpus luteum diameter profile versus control ([1]; after post-treatment ovulation, n=15, P=0.82): not different
Number of ovulations ([1]; all heifers, regardless of treatment): Single ovulation
Day-to-day diameter profile of the dominant follicle versus control ([1]; during treatment, n=15, P=0.05): larger
Device placement to ovulation ([1]; intravaginal device containing 1 g letrozole): 6.1 ± 0.25 days
Device placement to ovulation ([1]; intravaginal device containing 1 g letrozole, listed as letrozole): 6.1 ± 0.25 days
Delay of ovulation versus control ([1]; intravaginal device containing 1 g letrozole, n=15): 24 h
Max. diameter of extant dominant follicle ([1]; intravaginal device containing 1 g letrozole, n=15, mean±SEM): 14.6±0.51 mm
Max. diameter of extant dominant follicle ([1]; intravaginal device containing 1 g letrozole, n=15, mean±SEM, listed as letrozole): 14.6+/-0.51 mm
Plasma FSH concentrations versus control [2]: tendency for lower
Corpora lutea size following treatment ([3]; heifers treated with letrozole for 3 days): larger corpora lutea
Circulating FSH concentration [3, 4]: did not induce an elevation
Mean plasma luteinizing hormone (LH) concentrations [3, 4]: did increase
